Measurements taken from the supplement of paper PMC11061612.

Assays:
Test in all cases: Bliss excess, mean over the matrix (fraction); higher = more synergy
[1] = test system: NAMALWA (Burkitt's Lymphoma)
Procedure, shortened: (§1)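 Cell lines grown in DMEM/F12 or RPMI with 10% FBS were plated in 1536-well plates and held 24 hours at 37°C, 5% CO2 before 72 hours of exposure to two-drug dose matrices, with DMSO typically at 0.2%. CellTiter-Glo 2.0 luminescence gave viability, which was converted to inhibition. Vehicle wells were set to 0 and blank wells to 1. Combination Emax is the second-highest inhibition in the matrix, and Bliss excess is the observed combination effect minus the expected EA + EB − EA·EB, where EA and EB are the single-agent effects.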

GAK (Melanoma) = test system: GAK (Melanoma)
Procedure, shortened: as §1

IST-MEL1 (Melanoma) = test system: IST-MEL1 (Melanoma)
Procedure, shortened: as §1

[2] = test system: MDA-MB-415 (Breast Carcinoma)
Procedure, shortened: as §1

NB1 (Neuroblastoma) = test system: NB1 (Neuroblastoma)
Procedure, shortened: as §1

[3] = test system: PL4 (Pancreatic Carcinoma)
Procedure, shortened: as §1

[4] = test system: NCI-H1341 (Small Cell Lung Carcinoma)
Procedure, shortened: as §1

UACC-257 (Melanoma) = test system: UACC-257 (Melanoma)
Procedure, shortened: as §1

[5] = test system: PA-TU-8988T (Pancreatic Carcinoma)
Procedure, shortened: as §1

[6] = test system: DBTRG-05MG (Glioblastoma)
Procedure, shortened: as §1

T47D (Breast Carcinoma) = test system: T47D (Breast Carcinoma)
Procedure, shortened: as §1

[7] = test system: HT-1080 (Other Solid Carcinomas)
Procedure, shortened: as §1

[8] = test system: LCLC-103H (Non-Small Cell Lung Carcinoma)
Procedure, shortened: as §1

NCI-H2373 (Mesothelioma) = test system: NCI-H2373 (Mesothelioma)
Procedure, shortened: as §1

[9] = test system: MOLP-8 (Plasma Cell Myeloma)
Procedure, shortened: as §1

WM35 (Melanoma) = test system: WM35 (Melanoma)
Procedure, shortened: as §1

[10] = test system: MS-1 (Small Cell Lung Carcinoma)
Procedure, shortened: as §1

[11] = test system: MM1S (Plasma Cell Myeloma)
Procedure, shortened: as §1

SK-N-SH (Neuroblastoma) = test system: SK-N-SH (Neuroblastoma)
Procedure, shortened: as §1

Compound | Bliss excess [1] | Bliss excess (GAK (Melanoma)) | Bliss excess (IST-MEL1 (Melanoma)) | Bliss excess [2] | Bliss excess (NB1 (Neuroblastoma)) | Bliss excess [3] | Bliss excess [4] | Bliss excess (UACC-257 (Melanoma)) | Bliss excess [5] | Bliss excess [6] | Bliss excess (T47D (Breast Carcinoma)) | Bliss excess [7] | Bliss excess [8] | Bliss excess (NCI-H2373 (Mesothelioma)) | Bliss excess [9] | Bliss excess (WM35 (Melanoma)) | Bliss excess [10] | Bliss excess [11] | Bliss excess (SK-N-SH (Neuroblastoma))
NC1(C(=O)N[C@@H](CCO)c2ccc(Cl)cc2)CCN(c2ncnc3[nH]ccc23)CC1 [Capivasertib] + C[C@@H]1COCCN1C2=NC(=NC(=C2)C3(CC3)[S@](=N)(=O)C)C4=C5C=CNC5=NC=C4 [AZD6738] (first compound max 10 µM, 7x7, partner max 10 µM) | -0.0194 | -0.0552 | -0.0446 | -0.0516 | -0.0341 | -0.0328 | -0.0251 | 0.0164 | -0.0372 | 0.0064 | -0.0095 | -0.0473 | -0.0607 | -0.0301 | 0.0357 | -0.02 | -0.0465 | 0.0201 | -0.0576
CC(=O)c1c(C)c2cnc(Nc3ccc(N4CCNCC4)cn3)nc2n(C2CCCC2)c1=O [Palbociclib] + CC1(C)CCC(CN2CCN(c3ccc(C(=O)NS(=O)(=O)c4ccc(NCC5CCOCC5)c([N+](=O)[O-])c4)c(Oc4cnc5[nH]ccc5c4)c3)CC2)=C(c2ccc(Cl)cc2)C1 [Venetoclax] (first compound max 10 µM, 7x7, partner max 1 µM) | -0.0648 | -0.034 | 0.0117 | -0.0338 | -0.0154 | -0.0521 | 0.0245 | -0.0479 | -0.0333 | -0.0477 | 0.0466 | -0.0573 | -0.0083 | -0.0421 | 0.0278 | -0.0448 | -0.0827 | 0.0353 | -0.0185
COc1nnc2ccc(N3CCC(c4ccc(OCCN5CCN(C)C(=O)[C@H]5C)cc4)CC3)nn12 [AZD5153] + C[C@@H]1COCCN1C2=NC(=NC(=C2)C3(CC3)[S@](=N)(=O)C)C4=C5C=CNC5=NC=C4 [AZD6738] (first compound max 1 µM, 7x7, partner max 10 µM) | -0.0799 | -0.0005 | 0.0206 | -0.0009 | 0.0095 | -0.0425 | 0.0243 | 0.0581 | 0.0531 | 0.0213 | 0.0796 | -0.0255 | 0.0525 | -0.0263 | -0.0211 | 0.0621 | -0.0701 | 0.0719 | -0.0611
COc1nnc2ccc(N3CCC(c4ccc(OCCN5CCN(C)C(=O)[C@H]5C)cc4)CC3)nn12 [AZD5153] + CN(CC[C@H](CSC1=CC=CC=C1)NC2=C(C=C(C=C2)S(=O)(=O)NC(=O)C3=CC=C(C=C3)N4CCC(CC4)[C@H](C5=CC=CC=C5C6=CC=C(C=C6)Cl)O)S(=O)(=O)C(F)(F)F)CCO [AZD4320] (first compound max 1 µM, 7x7, partner max 1 µM) | – | – | – | – | 0.0126 | 0.0732 | 0.0454 | 0.0654 | 0.048 | -0.0517 | 0.055 | -0.0277 | – | 0.0157 | 0.0239 | 0.0983 | – | 0.0694 | –
Cn1cnc2c(F)c(Nc3ccc(Br)cc3Cl)c(C(=O)NOCCO)cc21 [Selumetinib] + C=CCn1c(=O)c2cnc(Nc3ccc(N4CCN(C)CC4)cc3)nc2n1-c1cccc(C(C)(C)O)n1 [AZD1775] (first compound max 10 µM, partner max 1 µM) | -0.0104 | -0.008 | 0.0242 | -0.0754 | -0.0731 | -0.0685 | 0.0153 | 0.0014 | -0.0202 | 0.0098 | -0.0179 | -0.0299 | -0.0316 | -0.101 | 0.0535 | 0.0038 | -0.0347 | -0.0433 | -0.11
NC1(C(=O)N[C@@H](CCO)c2ccc(Cl)cc2)CCN(c2ncnc3[nH]ccc23)CC1 [Capivasertib] + CC(C)n1c(=O)n(C)c2cnc3cc(F)c(-c4ccc(OCCCN5CCCCC5)nc4)cc3c21 [AZD1390] (first compound max 10 µM, 7x7, partner max 0.3 µM) | 0.0005 | -0.0397 | -0.0392 | -0.0297 | -0.0688 | -0.0225 | -0.0818 | -0.0358 | -0.0434 | -0.0418 | -0.0476 | -0.0504 | -0.0712 | -0.051 | -0.0032 | -0.0773 | 0.0169 | -0.0204 | -0.0626
COc1nnc2ccc(N3CCC(c4ccc(OCCN5CCN(C)C(=O)[C@H]5C)cc4)CC3)nn12 [AZD5153] + CCN(CCO)CCCOc1ccc2c(Nc3cc(CC(=O)Nc4cccc(F)c4)[nH]n3)ncnc2c1 [AZD2811] (first compound max 1 µM, 7x7, partner max 1 µM) | -0.0493 | -0.0273 | -0.0196 | -0.0346 | -0.0071 | -0.0333 | 0.0041 | 0.0076 | 0.0086 | -0.0036 | -0.0182 | 0.0036 | -0.0104 | -0.0642 | 0.0011 | -0.016 | -0.0171 | 0.106 | -0.0658
NC1(C(=O)N[C@@H](CCO)c2ccc(Cl)cc2)CCN(c2ncnc3[nH]ccc23)CC1 [Capivasertib] + Cn1cnc2c(F)c(Nc3ccc(Br)cc3Cl)c(C(=O)NOCCO)cc21 [Selumetinib] (first compound max 10 µM, 7x7, partner max 10 µM) | -0.0231 | -0.0649 | 0.0465 | 0.0162 | 0.0054 | -0.0314 | 0.0605 | -0.0402 | 0.128 | -0.0148 | -0.0108 | 0.0159 | -0.0267 | -0.0381 | 0.121 | 0.0104 | -0.005 | 0.0712 | -0.0223
Cn1cnc2c(F)c(Nc3ccc(Br)cc3Cl)c(C(=O)NOCCO)cc21 [Selumetinib] + C[C@@H]1COCCN1C2=NC(=NC(=C2)C3(CC3)[S@](=N)(=O)C)C4=C5C=CNC5=NC=C4 [AZD6738] (first compound max 10 µM, 7x7, partner max 10 µM) | -0.0083 | -0.0003 | -0.0217 | -0.0395 | 0.0023 | 0.0866 | 0.0757 | 0.047 | 0.0731 | 0.0599 | -0.0576 | 0.0553 | -0.0399 | -0.0019 | 0.0551 | 0.0172 | -0.0521 | 0.0511 | -0.0719
COc1cc2ncnc(Nc3ccc(F)c(Cl)c3)c2cc1OCCCN1CCOCC1 [Gefitinib] + CC(C)n1c(=O)n(C)c2cnc3cc(F)c(-c4ccc(OCCCN5CCCCC5)nc4)cc3c21 [AZD1390] (first compound max 10 µM, 7x7, partner max 0.3 µM) | -0.0355 | -0.0656 | -0.0684 | -0.103 | -0.0419 | -0.055 | -0.0399 | -0.055 | -0.0342 | -0.0482 | -0.0438 | -0.0548 | -0.0119 | -0.0751 | -0.0584 | -0.0641 | -0.0252 | -0.0356 | -0.0718
NC1(C(=O)N[C@@H](CCO)c2ccc(Cl)cc2)CCN(c2ncnc3[nH]ccc23)CC1 [Capivasertib] + CC(=O)c1c(C)c2cnc(Nc3ccc(N4CCNCC4)cn3)nc2n(C2CCCC2)c1=O [Palbociclib] (first compound max 10 µM, 7x7, partner max 10 µM) | 0.0053 | 0.0095 | -0.0106 | -0.0234 | -0.0201 | -0.0323 | -0.0345 | -0.0046 | -0.0168 | -0.0072 | -0.0115 | -0.0779 | -0.0146 | -0.0016 | 0.0115 | 0.01 | -0.0055 | -0.0128 | 0.0041
CC(=O)c1c(C)c2cnc(Nc3ccc(N4CCNCC4)cn3)nc2n(C2CCCC2)c1=O [Palbociclib] + CN(CC[C@H](CSC1=CC=CC=C1)NC2=C(C=C(C=C2)S(=O)(=O)NC(=O)C3=CC=C(C=C3)N4CCC(CC4)[C@H](C5=CC=CC=C5C6=CC=C(C=C6)Cl)O)S(=O)(=O)C(F)(F)F)CCO [AZD4320] (first compound max 10 µM, 7x7, partner max 1 µM) | – | – | – | – | -0.0677 | -0.0826 | -0.008 | -0.0668 | -0.0213 | -0.119 | -0.0628 | -0.121 | – | -0.0794 | 0.0145 | -0.114 | – | -0.0634 | –
C[C@@H](c1ccc2nccn2c1)n1nnc2ncc(-c3cnn(C)c3)nc21 [Savolitinib] + CN(CC[C@H](CSC1=CC=CC=C1)NC2=C(C=C(C=C2)S(=O)(=O)NC(=O)C3=CC=C(C=C3)N4CCC(CC4)[C@H](C5=CC=CC=C5C6=CC=C(C=C6)Cl)O)S(=O)(=O)C(F)(F)F)CCO [AZD4320] (first compound max 1 µM, 7x7, partner max 1 µM) | – | – | – | – | -0.0318 | -0.0801 | 0.0128 | -0.0529 | -0.0581 | -0.0262 | 0 | -0.0522 | – | -0.0681 | 0.0014 | -0.051 | – | -0.034 | –
C=CCn1c(=O)c2cnc(Nc3ccc(N4CCN(C)CC4)cc3)nc2n1-c1cccc(C(C)(C)O)n1 [AZD1775] + C1CN(CCC1(C(=O)N[C@@H](CCO)C2=CC=C(C=C2)Cl)N)C3=NC=NC4=C3C=CN4 [Capivasertib] (first compound max 3 µM, partner max 3 µM) | 0.0603 | -0.0395 | – | 0.0043 | -0.0592 | -0.0549 | -0.0538 | -0.0383 | -0.0264 | 0.005 | -0.031 | -0.0086 | -0.0462 | -0.0393 | 0.0286 | – | 0.0208 | 0.0171 | -0.0626
Cc1nc(Nc2ncc(C(=O)Nc3c(C)cccc3Cl)s2)cc(N2CCN(CCO)CC2)n1 [Dasatinib] + CC(=O)Nc1cccc(-n2c(=O)n(C3CC3)c(=O)c3c(Nc4ccc(I)cc4F)n(C)c(=O)c(C)c32)c1 [Trametinib] (first compound max 2 µM, 7x7, partner max 1 µM) | -0.0039 | -0.0624 | – | -0.0197 | -0.0502 | -0.0056 | 0.105 | -0.0926 | 0.136 | 0.0499 | -0.0855 | 0.0472 | 0.0201 | -0.0756 | 0.0159 | -0.0182 | -0.0281 | -0.0089 | -0.0507
